# Measurements published in patent publication US8192962B2, “Processes for detecting toxic substances” (Daikin Industries, Ltd., priority 2001, dated 2012).
# Test system: Detoxification protein genes
# Test: DNA chip mRNA expression in yeast, detoxification protein genes (Table 8)
# Format: cell-based, Saccharomyces cerevisiae S288C
# In short: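 First, S288C yeast grown in YPD at 25° C. are dosed in log phase with one toxicant (growth-inhibiting, not lethal) for 2 h. Next, total RNA is extracted and poly(A) mRNA isolated and reverse-transcribed with Cy3/Cy5-dUTP. Finally, whole-genome chip fluorescence is read relative to unexposed cells.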
compound,measurement,setting,value
"N#Cc1c(Cl)c(Cl)c(Cl)c(C#N)c1Cl [(9), 2,4,5,6-tetrachloro-1,3-benzenedicarbonitrile]",The level of expressed mRNA in the presence of chemical substance/The level of expressed mRNA in the absence of chemical substance,yeast gene YBR244W,1.4
same,The level of expressed mRNA in the presence of chemical substance/The level of expressed mRNA in the absence of chemical substance,yeast gene YBR293W,5.5
same,The level of expressed mRNA in the presence of chemical substance/The level of expressed mRNA in the absence of chemical substance,yeast gene YCL035C,1.9
same,The level of expressed mRNA in the presence of chemical substance/The level of expressed mRNA in the absence of chemical substance,yeast gene YCL069W,1.2
same,The level of expressed mRNA in the presence of chemical substance/The level of expressed mRNA in the absence of chemical substance,yeast gene YCR083W,1.8
same,The level of expressed mRNA in the presence of chemical substance/The level of expressed mRNA in the absence of chemical substance,yeast gene YDL100C,5.4
same,The level of expressed mRNA in the presence of chemical substance/The level of expressed mRNA in the absence of chemical substance,yeast gene YDL168W,8.2
same,The level of expressed mRNA in the presence of chemical substance/The level of expressed mRNA in the absence of chemical substance,yeast gene YDR256C,5.2
same,The level of expressed mRNA in the presence of chemical substance/The level of expressed mRNA in the absence of chemical substance,yeast gene YDR453C,4.5
same,The level of expressed mRNA in the presence of chemical substance/The level of expressed mRNA in the absence of chemical substance,yeast gene YDR513W,4.6
same,The level of expressed mRNA in the presence of chemical substance/The level of expressed mRNA in the absence of chemical substance,yeast gene YDR538W,0.3
same,The level of expressed mRNA in the presence of chemical substance/The level of expressed mRNA in the absence of chemical substance,yeast gene YEL027W,0.9
same,The level of expressed mRNA in the presence of chemical substance/The level of expressed mRNA in the absence of chemical substance,yeast gene YEL065W,0.1
same,The level of expressed mRNA in the presence of chemical substance/The level of expressed mRNA in the absence of chemical substance,yeast gene YER185W,2.9
same,The level of expressed mRNA in the presence of chemical substance/The level of expressed mRNA in the absence of chemical substance,yeast gene YFL050C,0.5
same,The level of expressed mRNA in the presence of chemical substance/The level of expressed mRNA in the absence of chemical substance,yeast gene YGL013C,3.0
same,The level of expressed mRNA in the presence of chemical substance/The level of expressed mRNA in the absence of chemical substance,yeast gene YGL254W,3.1
same,The level of expressed mRNA in the presence of chemical substance/The level of expressed mRNA in the absence of chemical substance,yeast gene YGR088W,1.5
same,The level of expressed mRNA in the presence of chemical substance/The level of expressed mRNA in the absence of chemical substance,yeast gene YGR138C,0.5
same,The level of expressed mRNA in the presence of chemical substance/The level of expressed mRNA in the absence of chemical substance,yeast gene YGR197C,16.7
same,The level of expressed mRNA in the presence of chemical substance/The level of expressed mRNA in the absence of chemical substance,yeast gene YGR209C,2.4
same,The level of expressed mRNA in the presence of chemical substance/The level of expressed mRNA in the absence of chemical substance,yeast gene YGR224W,0.9
same,The level of expressed mRNA in the presence of chemical substance/The level of expressed mRNA in the absence of chemical substance,yeast gene YHL040C,1.1
same,The level of expressed mRNA in the presence of chemical substance/The level of expressed mRNA in the absence of chemical substance,yeast gene YHL047C,1.2
same,The level of expressed mRNA in the presence of chemical substance/The level of expressed mRNA in the absence of chemical substance,yeast gene YHR008C,1.7
same,The level of expressed mRNA in the presence of chemical substance/The level of expressed mRNA in the absence of chemical substance,yeast gene YHR048W,4.5
same,The level of expressed mRNA in the presence of chemical substance/The level of expressed mRNA in the absence of chemical substance,yeast gene YHR053C,4.5
same,The level of expressed mRNA in the presence of chemical substance/The level of expressed mRNA in the absence of chemical substance,yeast gene YHR055C,3.9
same,The level of expressed mRNA in the presence of chemical substance/The level of expressed mRNA in the absence of chemical substance,yeast gene YIR002C,1.7
same,The level of expressed mRNA in the presence of chemical substance/The level of expressed mRNA in the absence of chemical substance,yeast gene YIR038C,4.6
same,The level of expressed mRNA in the presence of chemical substance/The level of expressed mRNA in the absence of chemical substance,yeast gene YJL101C,3.1
same,The level of expressed mRNA in the presence of chemical substance/The level of expressed mRNA in the absence of chemical substance,yeast gene YJR104C,1.9
same,The level of expressed mRNA in the presence of chemical substance/The level of expressed mRNA in the absence of chemical substance,yeast gene YKL026C,7.5
same,The level of expressed mRNA in the presence of chemical substance/The level of expressed mRNA in the absence of chemical substance,yeast gene YKL064W,2.4
same,The level of expressed mRNA in the presence of chemical substance/The level of expressed mRNA in the absence of chemical substance,yeast gene YKR066C,0.7
same,The level of expressed mRNA in the presence of chemical substance/The level of expressed mRNA in the absence of chemical substance,yeast gene YKR105C,1.0
same,The level of expressed mRNA in the presence of chemical substance/The level of expressed mRNA in the absence of chemical substance,yeast gene YKR106W,10.5
same,The level of expressed mRNA in the presence of chemical substance/The level of expressed mRNA in the absence of chemical substance,yeast gene YLL028W,1.2
same,The level of expressed mRNA in the presence of chemical substance/The level of expressed mRNA in the absence of chemical substance,yeast gene YLL057C,121.8
same,The level of expressed mRNA in the presence of chemical substance/The level of expressed mRNA in the absence of chemical substance,yeast gene YLL060C,13.0
same,The level of expressed mRNA in the presence of chemical substance/The level of expressed mRNA in the absence of chemical substance,yeast gene YLR043C,2.8
same,The level of expressed mRNA in the presence of chemical substance/The level of expressed mRNA in the absence of chemical substance,yeast gene YLR046C,1.0
same,The level of expressed mRNA in the presence of chemical substance/The level of expressed mRNA in the absence of chemical substance,yeast gene YML028W,0.8
same,The level of expressed mRNA in the presence of chemical substance/The level of expressed mRNA in the absence of chemical substance,yeast gene YML116W,1.4
same,The level of expressed mRNA in the presence of chemical substance/The level of expressed mRNA in the absence of chemical substance,yeast gene YMR015C,0.1
same,The level of expressed mRNA in the presence of chemical substance/The level of expressed mRNA in the absence of chemical substance,yeast gene YMR038C,2.4
same,The level of expressed mRNA in the presence of chemical substance/The level of expressed mRNA in the absence of chemical substance,yeast gene YNL239W,2.5
same,The level of expressed mRNA in the presence of chemical substance/The level of expressed mRNA in the absence of chemical substance,yeast gene YNL241C,3.4
same,The level of expressed mRNA in the presence of chemical substance/The level of expressed mRNA in the absence of chemical substance,yeast gene YNL259C,1.6
same,The level of expressed mRNA in the presence of chemical substance/The level of expressed mRNA in the absence of chemical substance,yeast gene YOL158C,1.7
same,The level of expressed mRNA in the presence of chemical substance/The level of expressed mRNA in the absence of chemical substance,yeast gene YOR031W,0.7
same,The level of expressed mRNA in the presence of chemical substance/The level of expressed mRNA in the absence of chemical substance,yeast gene YOR153W,3.2
same,The level of expressed mRNA in the presence of chemical substance/The level of expressed mRNA in the absence of chemical substance,yeast gene YOR247W,0.1
same,The level of expressed mRNA in the presence of chemical substance/The level of expressed mRNA in the absence of chemical substance,yeast gene YOR251C,0.8
same,The level of expressed mRNA in the presence of chemical substance/The level of expressed mRNA in the absence of chemical substance,yeast gene YOR273C,0.6
same,The level of expressed mRNA in the presence of chemical substance/The level of expressed mRNA in the absence of chemical substance,yeast gene YPL163C,0.1
same,The level of expressed mRNA in the presence of chemical substance/The level of expressed mRNA in the absence of chemical substance,yeast gene YPR200C,4.7
